Source: patent EP3398599A1, “COMPOSITIONS AND METHODS FOR PROPHYLAXIS AND TREATMENT OF ADDICTIONS” (priority 2009, dated 2010)
Entries after “also recorded” stand apart in the source; their conditions may differ.

What was measured:
[1] = test system: msP rats; assay: Voluntary ethanol intake, acute treatment, free choice between water and 10% alcohol 24 hours a day; assay type: in vivo; conditions: for ethanol intake: 2, 8 and 24 hours
Description: The drug was given orally (OS) via gavage procedure in a volume of 1.0 ml/kg. Yohimbine was dissolved in distilled water and was administered intraperitoneally (IP) in a volume of 1.0 ml/kg. […] These drugs were given orally (OS) via gavage procedure in a volume of 1.0 ml/kg. Yohimbina was dissolved in distilled water and was administered intraperitoneally (IP) in a volume of 1.0 ml/kg. GW9662 was prepared in 5% DMSO and 5% TWIN 80 and was given either IP (1 ml/kg) or intacerebroventricularly (ICV, 1 µl/rat). Antalarmin was prepared in 10 % TWIN 80 and was given IP (1 ml/kg). Ondansetron was prepared in acqueous solution and was given IP (1 ml/kg).
(§1) At the beginning of the experiments, msP rats were allowed free choice between water and 10% (v/v) alcohol 24 h/day for at least 15 days. The fluids were offered in graduated drinking tubes equipped with metallic drinking spouts. The position (to the right or left) of alcohol and water drinking tubes was changed daily to avoid the development of side preference. […] Alcohol, water and food intakes were measured.
MsP rats were first trained to drink 10% (w/v) alcohol for 24 hours a day (free choice between water and ethanol). […] Before starting the treatment, rats were trained to gavage administration procedures for three days, during which they received vehicle (distilled water). […] Drinking experiments started at the beginning of the dark cycle. Alcohol, water and food intakes were monitored at 2, 8 and 24 hours after ethanol was made available.
Before starting the treatment, rats were trained to gavage and IP administration procedures for three days. Experiment was conducted in a between subject design (n = 22). […] Drinking experiments started at the beginning of the dark cycle. Alcohol, water and food intakes were monitored at 2, 8 and 24 hours after ethanol was made available.
The experiment was conduced using a within subject counterbalanced Latine square design, where each animal received all drug doses.
The drinking experiments were conducted at the beginning of the dark cycle, and alcohol, water and food intakes were monitored at 2, 8 and 24 hours after ethanol was made available.
(§2) MsP rats were first trained to drink 10% (w/v) alcohol for 24 hours a day (free choice between water and ethanol). […] Rats treated with drug vehicles served as a control. Before starting the treatment, rats were trained to gavage administration for three days, during which they received drugs vehicle (distilled water). […] Drinking experiments started at the beginning of the dark cycle. Alcohol, water, and food intakes were monitored at 2, 8 and 24 hours after ethanol was made available.
as §2, with “water” for “water,”
as §2, with “water” for “water,”
MsP rats were first trained to drink 10% (w/v) alcohol for 24 hours a day (free choice between water and ethanol). […] Rats treated with drug vehicles served as a control. Before starting the treatment, rats were trained to gavage administration for three days, during which they received drugs vehicle (distilled water).

[2] = test system: heavy tobacco smokers; assay: Pilot study in heavy tobacco smokers (pioglitazone 15-30 mg/daily, varenicline 0.5 to 2.0 mg/day, bupropione 150 mg/kg); assay type: in vivo, human; conditions: for STAI score (anxiety): over 10 treatment weeks
From the text: […] Patients were instructed to record in a personal logbook the number of cigarettes per day and the time of the day smoking occurred. At the end of the study, the logbooks were returned to the clinical personnel who analyzed the data. Every other week, participants were interviewed and subjected to the Spielberger State-Trait Anxiety Inventory (STAI), the Montgomery Asberg Depression Rating Scale (M.A.D.R.S 10 Item), and to a Visual Analogic Scale (VAS) to measure nicotine craving. During the first month of treatment, every two weeks, ACTH and cortisol levels were also monitored to evaluate HPA activation before and during treatment.

[3] = test system: msP rats; assay: Yohimbine-induced (stress-induced) reinstatement of alcohol seeking; assay type: in vivo; conditions: naltrexone 0.25 and 1.0 mg/kg IP 1 hour before test
[4] = test system: msP rats; assay: Voluntary ethanol intake, subchronic (7 days) treatment, alcohol available 24 hours/day; assay type: in vivo; conditions: naltrexone […] IP alone or with pioglitazone 10.0 or 30.0 mg/kg OS, overall p<0.01
Description: as §1
Before starting the treatment, rats were trained to gavage administration procedures for three days, during which they received vehicle (distilled water).
(§3) Alcohol, water and food intakes were monitored at 2, 8 and 24 hours. Fluids and food intakes were monitored for three additional days after the end of the drug treatment period.
as §3

[5] = test system: human patients; assay: Observational study of alcohol abuse in human patients (pioglitazone 30 mg/day or naltrexone 50 mg/day + psychotherapy); assay type: in vivo; conditions: for CDT: mean value of blood tests
From the text: Patients were instructed to record in a personal logbook the number of drinks per day and the time of the day drinks occurred. At the end of the study, the logbooks were returned to the clinical personnel who analyzed the data.
In addition, biochemical parameters to ascertain alcohol detoxification and to measure recovery of physiological functions (i.e., hepatic function) were monitored monthly. Hematological parameters measured included: mean corpuscular volume (MCV); gamma-GT; aspartate aminotransferase (AST); alanine aminotransferase (ALT); and carbohydrate-deficient transferring (CDT). MCV and CDT are biomarkers for ethanol consumption, and GGT, ALT and AST are biomarkers for hepatic functionality.
Data were analyzed by analysis of variance followed by Newman-Keuls post hoc tests when appropriate.

[6] = test system: msP rats; assay: Cue-induced reinstatement of alcohol seeking; assay type: in vivo; conditions: naltrexone, both doses (0.25 and 1.0 mg/kg) one hour before test; p<0.01
[7] = test system: CD mice; conditions: mouse, in vivo
[8] = test system: CD mice; assay: Morphine-induced analgesic tolerance, tail-flick test; conditions: mouse, in vivo
Description: All procedures were conducted in adherence to the European Community Council Directive for Care and Use of Laboratory Animals.
Mice were divided into 6 groups. Group 1 (n=8) received drug vehicles (veh/veh). […] Animals were treated twice daily (between 9:00 and 10:00 a.m. and 9:00 and 10:00 p.m.).
Morphine hydrochloride was purchased from Salars (Milano, Italy). Morphine (30 mg/kg) was dissolved in NaCl […] and was injected intraperitoneally (IP) twice a day at the indicated doses in a volume of 0.2 ml per mice. […] It was dissolved in distilled water and was administered per o.s. at the doses of 10 mg/kg and 30 mg/kg in a volume of 0.6 ml per mice.
Two different tests were used to monitor analgesic responses. The tail-flick test was performed 45 min after the morning injection of morphine, and the tail-immersion test was performed 45 min after the evening injection of morphine.
For the tail-flick test, each mouse was gently restrained in a soft tissue pocket, and the tail (1 cm from the tip) was exposed to a hot light beam. Latency for tail-flick was measured with a 6 seconds cut-off time. For the tail-immersion test, each mouse was restrained in a soft tissue pocket, and the distal half of the tail dipped into a water bath set at 52 C°. Latency for removing the tail from the hot water was measured with a 10 seconds cut-off time.

[9] = T=0 (beginning of the treatment)

CNCCC(Oc1ccc(C(F)(F)F)cc1)c1ccccc1 (centres unmarked) [fluoxetine]
ethanol intake in msP rats in a pilot study ([1]; fluoxetine 3.0 mg/kg OS): did not reduce ethanol intake | ethanol intake ([1]; fluoxetine alone 3.0 mg/kg OS, given twice): did not significantly modify ethanol intake

Cc1nccn1CC1CCc2c(c3ccccc3n2C)C1=O (centres unmarked) [ondansetron]
ethanol intake in msP rats in a pilot study ([1]; ondansetron 1.0 mg/kg IP): did not reduce ethanol intake | ethanol intake ([1]; ondansetron alone 1.0 mg/kg IP, given twice): did not significantly modify ethanol intake

CC[C@@H](C(N)=O)N1CCCC1=O [levetiracetam]
ethanol intake in msP rats in a pilot study ([1]; levetiracetam 100.0 mg/kg OS): did not reduce ethanol intake | ethanol intake ([1]; levetiracetam alone 100.0 mg/kg OS, given twice): did not significantly modify ethanol intake

CC(NC(C)(C)C)C(=O)c1cccc(Cl)c1 (centres unmarked) [bupropione]
STAI score (anxiety) [2]: not with bupropione

c1cnc2cc3c(cc2n1)[C@@H]1CNC[C@H]3C1 [varenicline]
Percent inhibition of smoking ([2]; Patient 1, T=0 (baseline expressed as 100%)): 100% | Percent inhibition of smoking ([2]; Patient 1, T=2 weeks of treatment): 34% | Percent inhibition of smoking ([2]; Patient 1, T=4 weeks of treatment): 46% | Percent inhibition of smoking ([2]; Patient 1, T=6 weeks of treatment): 61% | Percent inhibition of smoking ([2]; Patient 1, T=8 weeks of treatment): 80% | Percent inhibition of smoking ([2]; Patient 1, T=10 weeks of treatment): 93% | Percent inhibition of smoking ([2]; Patient 2, T=0 (baseline expressed as 100%)): 100% | Percent inhibition of smoking ([2]; Patient 2, T=2 weeks of treatment): 22% | Percent inhibition of smoking ([2]; Patient 2, T=4 weeks of treatment): 47% | Percent inhibition of smoking ([2]; Patient 2, T=6 weeks of treatment): 63% | Percent inhibition of smoking ([2]; Patient 2, T=8 weeks of treatment): 87% | Percent inhibition of smoking ([2]; Patient 2, T=10 weeks of treatment): 100% | Percent inhibition of smoking ([2]; Patient 3, T=0 (baseline expressed as 100%)): 100% | Percent inhibition of smoking ([2]; Patient 3, T=2 weeks of treatment): 38% | Percent inhibition of smoking ([2]; Patient 3, T=4 weeks of treatment): 54% | Percent inhibition of smoking ([2]; Patient 3, T=6 weeks of treatment): 62% | Percent inhibition of smoking ([2]; Patient 3, T=8 weeks of treatment): 79% | Percent inhibition of smoking ([2]; Patient 3, T=10 weeks of treatment): 94% | STAI score (anxiety) [2]: significantly reduced | subjects reaching complete abstinence ([2]; pioglitazone 4 patients, varenicline 3 patients): one of them | percent of weekly smoked cigarettes: pioglitazone vs varenicline ([2]; post hoc tests): no significant differences

O=C1CC[C@@]2(O)[C@H]3Cc4ccc(O)c5c4[C@@]2(CCN3CC2CC2)[C@H]1O5 [naltrexone]
yohimbine-induced reinstatement of alcohol seeking [3]: did not significantly reduce the effect of yohimbine | voluntary ethanol intake [4]: significantly reduced | Depression Scale M.A.D.R.S (mean score values) [5, 9]: 19 | Depression Scale M.A.D.R.S (mean score values) ([5]; T=1.1 (month 1, week 1)): 16 | Depression Scale M.A.D.R.S (mean score values) ([5]; T=1.2 (month 1, week 2)): 18 | effect on daily drinks, naltrexone vs pioglitazone ([5]; first two weeks of treatment, P<0.05): more effective than pioglitazone | CDT ([5]; T0): 3.6 | CDT ([5]; T1= 4 weeks): 3.0 | CDT ([5]; T2= 8 weeks): 2.5 | decrease in MCV and CDT ([5]; naltrexone treated patients (NTX), two months): to a lesser extent compared to the pioglitazone group | all the five biomarkers (MCV, GGT, ALT, AST, CDT): difference from controls (psychotherapy alone) ([5]; post hoc tests, P<0.001): statistical difference | anxiety score: difference from controls ([5]; post hoc tests, P<0.001): statistically significant difference | obsessive compulsive score for alcohol (OCDS): decrease, difference from controls ([5]; post hoc tests, P<0.001): statistically significant difference | depression score (MADRS): difference from controls ([5]; post hoc tests, P<0.001 for pioglitazone): not naltrexone | hepatic parameters (GGT, ALT, AST) ([5]; two months of treatment): ameliorated | daily ethanol intake (number of daily drinks) ([5]; vs psychotherapy only): significantly reduced daily ethanol intake | number of abstinence days ([5]; vs psychotherapy only): increased the number of abstinence days | conditioned (cue-induced) reinstatement of alcohol-seeking [6]: significantly reduced reinstatement of ethanol seeking; also recorded: significantly reduced cue-induced reinstatement of alcohol-seeking

CN1CCN2c3ncccc3Cc3ccccc3C2C1 (centres unmarked) [mirtazapine]
ethanol intake in msP rats in a pilot study ([1]; mirtazapine 5.0 mg/kg OS): did not reduce ethanol intake | ethanol intake ([1]; mirtazapine alone 5.0 mg/kg OS, given twice): did not significantly modify ethanol intake

CCc1ccc(CCOc2ccc(CC3SC(=O)NC3=O)cc2)nc1 (centres unmarked) [pioglitazone]
Anxiety Score obtained using The STAY-Y1 scale (mean score values) [5, 9]: 59

CC1(C)O[C@@H]2[C@@H](CO[C@@]3(COS(N)(=O)=O)OC(C)(C)O[C@@H]23)O1 [topiramate]
ethanol intake in msP rats in a pilot study ([1]; topiramate 30.0 mg/kg OS): did not reduce ethanol intake | ethanol intake ([1]; topiramate alone 30.0 mg/kg OS, given twice): did not significantly modify ethanol intake | ethanol intake at 2 hours ([1]; topiramate alone 30.0 mg/kg OS, p<0.05): significant reduction of ethanol intake at 2 hours

NCC1(CC(=O)O)CCCCC1 [gabapentin]
ethanol intake in msP rats in a pilot study ([1]; gabapentin 60.0 mg/kg OS): did not reduce ethanol intake | ethanol intake ([1]; gabapentin alone 60.0 mg/kg OS): did not significantly modify ethanol intake

O=C(Nc1ccccc1)c1cc([N+](=O)[O-])ccc1Cl [GW9662]
ethanol intake per se ([1]; GW9662 5 µg/rat ICV alone): did not significantly affect ethanol intake per se | pioglitazone-induced reduction of ethanol intake ([1]; GW9662 5 µg/rat ICV with pioglitazone 30 mg/kg OS): completely prevented the effect of pioglitazone | pioglitazone-induced reduction of ethanol intake ([1]; GW9662 IP (1.0 and 5.0 mg/kg) with pioglitazone 30 mg/kg OS): blocked the effect of pioglitazone in a dose related manner | ethanol drinking ([1]; GW9662 alone (1.0 and 5.0 mg/kg IP)): did not modify ethanol drinking

CN1CC[C@]23c4c5ccc(O)c4O[C@H]2[C@@H](O)C=C[C@H]3[C@H]1C5 [morphine]
analgesic effect (tail-immersion) on test day 9 [7]: marginally significant | tail-immersion latency on day 1, 3, 5, and 7 [7]: significantly increased the time to tail-flick | time to tail-flick on day 1, 3 and 5 [8]: significantly increased the time to tail-flick | time to tail-flick on test days 7 and 9 [8]: non significant difference from controls
